Measured values taken from US6841547B2, “Method for decreasing low density lipoprotein” (Albert Einstein College of Medicine of Yeshevia University, priority 2003, dated 2005).

Assays:
[1] = humans; cited from earlier work
[2] = in vivo; cited from earlier work
[3] = 6-month regimen of sub-antibacterial doxycycline: cholesterol fractions in plasma of acute coronary syndrome patients with elevated baseline cholesterol; assay type: in vivo, human
Experimental: After six months, the cholesterol fractions were then measured (Table 1). Table 1: The Effect of a 6-Month Regimen of Sub-Antibacterial Doxycycline on Cholesterol Values in Plasma of Acute Coromary Syndrome Patients with Elevated Baseline Cholesterol

Row | Structure (SMILES) | Effect on serum cholesterol [1] | Effect on serum cholesterol levels [2] | Change Due to Treatment, HDL/Cholesterol (Increase) ([3]; 6 months vs baseline, doxycycline 20 mg twice a day) [%] | Change Due to Treatment, LDL-Cholesterol (Reduction) ([3]; 6 months vs baseline, doxycycline 20 mg twice a day, p=0.033) [%] | Total Cholesterol, 6 Month Level ([3]; plasma, doxycycline 20 mg twice a day for six months, 3 patients on statins, baseline 231 ± 20) [mg %] | HDL-Cholesterol, 6 Month Level ([3]; plasma, doxycycline 20 mg twice a day for six months, baseline 48 ± 17) [mg %] | LDL-Cholesterol, 6 Month Level ([3]; plasma, doxycycline 20 mg twice a day for six months, baseline 155 ± 9) [mg %] | HDL/Cholesterol, 6 Month Level ([3]; ratio of HDL-cholesterol to total cholesterol, doxycycline 20 mg twice a day for six months, baseline 0.21)
1 | CN(C)[C@@H]1C(O)=C(C(N)=O)C(=O)[C@@]2(O)C(O)=C3C(=O)c4c(O)cccc4[C@@](C)(O)[C@H]3C[C@@H]12 [tetracycline] | no effect | reduce serum cholesterol levels |  |  |  |  |  | 
2 | C[C@H]1c2cccc(O)c2C(=O)C2=C(O)[C@]3(O)C(=O)C(C(N)=O)=C(O)[C@@H](N(C)C)[C@@H]3[C@@H](O)[C@@H]21 [doxycycline] |  |  | 19 | 31 | 190 ± 20 | 48 ± 18 | 107 ± 12 | 0.25
